Tests used:
human ERβ = molecular target: T1, human ERβ (Homo sapiens, UniProt Q92731); assay: Radioligand binding competition with [3H]-17β-estradiol, ERβ; conditions: human ERβ ligand binding domain, read-out: ER-β IC50
T1 construct: M214-Q530 of human ERβ; Flag (C); made in house; host or cells: E. coli BL21(DE3), clarified lysate

human ERα = molecular target: T2, human ERα (Homo sapiens, UniProt P03372); assay: Radioligand binding competition with [3H]-17β-estradiol, ERα; conditions: human ERα ligand binding domain, read-out: ER-α IC50
T2 construct: amino acids M250-V595 of human ERα; His (N); made in house; host or cells: E. coli BL21(DE3), clarified lysate
T2 sequence (P03372 250-595): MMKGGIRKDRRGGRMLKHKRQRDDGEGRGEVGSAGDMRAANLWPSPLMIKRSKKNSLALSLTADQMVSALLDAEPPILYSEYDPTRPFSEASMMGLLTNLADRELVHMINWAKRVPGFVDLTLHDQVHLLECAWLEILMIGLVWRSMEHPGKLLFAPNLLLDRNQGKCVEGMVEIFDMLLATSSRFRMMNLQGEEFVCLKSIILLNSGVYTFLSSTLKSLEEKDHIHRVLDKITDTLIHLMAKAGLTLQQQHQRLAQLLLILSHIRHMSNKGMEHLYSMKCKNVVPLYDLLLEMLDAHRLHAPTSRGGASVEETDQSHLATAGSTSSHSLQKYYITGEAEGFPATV

[1] = tested on: progesterone receptor mRNA in the preoptic area of the rat brain; assay: Progesterone receptor mRNA regulation test procedure; type: in vivo; conditions: 10 mg/kg, vehicle 4.3 ± 1.5
Excerpt: This test procedure can be used to evaluate the estrogenic or antiestrogenic activity of compounds from this invention [Shughrue, et al., Endocrinology 138: 5476-5484 (1997)].

129 SvE mice = assay: Mouse uterotrophic test procedure (Procedure 2); type: in vivo; conditions: 50 mg/kg subcutaneously, 4 days, immature mice
Procedure: Procedure 2: Sexually immature (18 days of age) 129 SvE mice were obtained from Taconic and provided unrestricted access to a casein-based diet (Purina Mills 5K96C) and water. On day 22, 23, 24 and 25 the mice were dosed subcutaneously with compound or vehicle (corn oil). There were six mice/group and they were euthanized approximately 6 hours after the last injection by CO2 asphyxiation and pneumothorax. Uteri were removed and weighed after trimming associated fat and expressing any internal fluid. The following results (Table (2)) were obtained for representative compounds from the invention.

casein kinase II mRNA = assay: Mammary end bud test procedure (rat mammotrophic assay); type: in vivo; conditions: 0.1 mg/kg sc + progesterone 30 mg/kg; ovariectomized rats; vehicle 1.61 ± 0.36
Procedure: Estrogens are required for full ductal elongation and branching of the mammary ducts, and the subsequent development of lobulo-alveolar end buds under the influence of progesterone. In this test procedure, the mammotrophic activity of selected compounds of the invention was evaluated according to the following standard pharmacological test procedure. Twenty-eight day old Sprague-Dawley rats (Taconic Farms, Germantown, N.Y.) were ovariectomized and rested for nine days. […] For the final three days, rats were also dosed subcutaneously with progesterone (30 mg/kg). On the seventh day, rats were euthanised and a mammary fat pad excised. This fat pad was analyzed for casein kinase II mRNA as a marker of end bud proliferation. Casein kinase II mRNA was anlayzed by real-time RT-PCR. Briefly, RNA was isolated following Trizol (GibcoBRL, Grand Island, N.Y.) according to the manufacture's directions, Samples were treated with DNAse I using DNA-free kit (Ambion), and casein kinase II mRNA levels were measured by real-time RT-PCR using the Taqman Gold procedure (PE Applied Biosystems). […] Casein kinase II mRNA levels were normalized to 18s ribosomal RNA contained within each sample reaction using primers and probe supplied by PE Applied Biosystems. The following results were obtained for an example of the invention (Table (4)).

[2] = second experiment, vehicle 10.3 ± 0.8

T1 sequence (Q92731 214-530): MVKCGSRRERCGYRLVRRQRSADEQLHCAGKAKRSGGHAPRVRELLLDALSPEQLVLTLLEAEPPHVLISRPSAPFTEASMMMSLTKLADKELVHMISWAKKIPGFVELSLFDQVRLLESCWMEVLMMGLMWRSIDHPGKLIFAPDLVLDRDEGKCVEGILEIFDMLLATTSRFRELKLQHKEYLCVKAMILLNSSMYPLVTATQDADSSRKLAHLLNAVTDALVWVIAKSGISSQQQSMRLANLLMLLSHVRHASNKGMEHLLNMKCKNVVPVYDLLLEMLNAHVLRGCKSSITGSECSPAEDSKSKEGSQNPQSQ

| Compound | IC50 (human ERβ) [nM] | melting point | IC50 (human ERα) [nM] | Progesterone receptor mRNA (mean ± stdev) [1] [arbitrary units] | mean uterine weight ± SEM (129 SvE mice; [2]) [mg] | Casein kinase II mRNA/18S rRNA (mean ± SEM) (casein kinase II mRNA) | mean uterine weight ± SEM (129 SvE mice; first experiment, vehicle 9.5 ± 0.3) [mg] |
| --- | --- | --- | --- | --- | --- | --- | --- |
| Oc1ccc2c3c(ccc2c1)-c1cc(F)c(O)cc1CO3 [Example 1b, 9-Fluoro-6H-dibenzo[c,h]chromene-2,8-diol] | 1.8 | 230 to 231 °C (dec.) | 20 | – | – | – | – |
| Oc1ccc2c(c1)COc1c-2cc(Br)c2c(O)cccc12 [Example 1w, 12-Bromo-6H-dibenzo[c,h]chromene-1,8-diol] | 1.4 | – | 10 | – | – | – | – |
| Oc1ccc2c(c1)COc1c-2cc(Cl)c2c(O)cccc12 [Example 1v, 12-Chloro-6H-dibenzo[c,h]chromene-1,8-diol] | 0.9 | – | 4.5 | – | – | – | – |
| N#Cc1cc2c(c3cccc(O)c13)OCc1cc(O)ccc1-2 [Example 1x, 1,8-Di hydroxy-6H-di benzo[c,h]chromene-12-carbonitrile] | 1.5 | – | 86 | – | – | – | – |
| Oc1ccc2c(c1)COc1c-2ccc2c(O)ccc(Cl)c12 [Example 1z, 4-chloro-6H-dibenzo[c,h]chromene-1,8-diol] | 0.8 | – | 10 | – | – | – | – |
| N#Cc1cc2c(c3ccc(O)c(Cl)c13)OCc1cc(O)ccc1-2 [Example 1f, 1-Chloro-2,8-dihydroxy-6H-dibenzo[c,h]chromene-12-carbonitrile] | 3.5 | > 250 °C | 156 | – | – | – | – |
| Oc1ccc2c(c1)COc1c-2ccc2ccccc12 [Example 1c, 6H-Dibenzo[c,h]chromen-8-ol] | 79.7 | 192 to 194 °C | 460 | – | – | – | – |
| Oc1ccc2c(c1)COc1c-2ccc2c(O)cccc12 [Example 1u, 6H-dibenzo[c,h]chromene-1,8-diol] | 1.4 | 213 to 214 °C | 17 | – | – | – | – |
| C[C@]12CC[C@@H]3c4ccc(O)cc4CC[C@H]3[C@@H]1CC[C@@H]2O [17β-estradiol, reference compound] | – | – | – | – | 45.3 ± 1.9 | 39.0 ± 5.4 | 46.7 ± 2.5 |
| Oc1ccc2c3c(cc(Cl)c2c1)-c1cc(F)c(O)cc1CO3 [Example 1k, 12-Chloro-9-fluoro-6H-dibenzo[c,h]chromene-2,8-diol] | 2 | 215 to 220 °C (dec.) | 27 | – | – | – | – |
| N#Cc1cc2c(c3ccc(O)cc13)OCc1cc(O)c(F)cc1-2 [Example 1e, 9-fluoro-2,8-dihydroxy-6H-dibenzo[c,h]chromene-12-carbonitrile] | 19 | > 250 °C | 1230 | – | – | – | – |
| Oc1ccc2c(c1)COc1c-2ccc2c(O)c(Cl)ccc12 [Example 1y, 2-Chloro-6H-dibenzo[c,h]chromene-1,8-diol] | 1.65 | 181 to 182 °C (dec.) | 17.6 | – | – | – | – |
| COc1c(Cl)c2c(c3ccc(O)cc13)OCc1cc(O)ccc1-2 [Example 1m, 11-Chloro-12-methoxy-6H-dibenzo[c,h]chromene-2,8-diol] | 0.27 | – | 10.4 | – | – | – | – |
| Oc1ccc2c(c1)COc1c-2ccc2c(Cl)c(O)ccc12 [Example 1g, 1-Chloro-6H-dibenzo[c,h]chromene-2,8-diol] | 2.7 | 216 to 218 °C | 74 | – | – | – | – |
| Oc1ccc2c3c(cc(Br)c2c1)-c1cc(F)c(O)cc1CO3 [Example 1j, 12-Bromo-9-fluoro-6H-dibenzo[c,h]chromene-2,8-diol] | 2 | 194 to 197 °C | 77 | – | – | – | – |

Further lines, with some results ahead:

| IC50 (human ERβ) [nM] | melting point | IC50 (human ERα) [nM] | Compound | Progesterone receptor mRNA (mean ± stdev) [1] [arbitrary units] | mean uterine weight ± SEM (129 SvE mice; [2]) [mg] | Casein kinase II mRNA/18S rRNA (mean ± SEM) (casein kinase II mRNA) | mean uterine weight ± SEM (129 SvE mice; first experiment, vehicle 9.5 ± 0.3) [mg] |
| --- | --- | --- | --- | --- | --- | --- | --- |
| 48.3 | 191 to 193 °C | 217 | Oc1ccc2c(c1)COc1c-2cc(-c2cccs2)c2cc(O)ccc12 [Example 1r, 12-Thien-2-yl-6H-dibenzo[c,h]chromene-2,8-diol] | – | – | – | – |
| 2.3 | > 220 °C | 81 | C=Cc1cc2c(c3ccc(O)cc13)OCc1cc(O)ccc1-2 [Example 1o, 12-Vinyl-6H-dibenzo[c,h]chromene-2,8-diol] | – | – | – | – |
| 29.2 | 179 to 182 °C | 154 | Oc1ccc2c(c1)COc1c-2cc(-c2ccsc2)c2cc(O)ccc12 [Example 1q, 12-Thien-3-yl—6H-dibenzo[c,h]chromene-2,8-diol] | – | – | – | – |
| 3 | 118 to 121 °C | 71 | CCCCc1cc2c(c3ccc(O)cc13)OCc1cc(O)ccc1-2 [Example 1s, 12-Butyl-6H-dibenzo[c,h]chromene-2,8-diol] | – | – | – | – |
| 1.1 | 212 to 216 °C (dec.) | 17 | Oc1ccc2c(c1)COc1c-2cc(Cl)c2cc(O)ccc12 [Example 1i, 12-Chloro-6H-dibenzo[c,h]chromene-2,8-diol] | 57.5 ± 14.0 | 28.9 ± 2.0 | – | – |
| 3.3 | 248 to 252 °C (dec.) | 74 | Oc1ccc2c(c1)COc1c-2ccc2cc(O)ccc12 [Example 1a, 6H-Dibenzo[c,h]chromene-2,8-diol] | – | – | – | – |
| 0.9 | 178 to 180 °C (dec.) | 26 | Oc1ccc2c(c1)COc1c-2cc(Br)c2cc(O)ccc12 [Example 1h, 12-Bromo-6H-dibenzo[c,h]chromene-2,8-diol] | – | – | – | – |
| 2.7 | 220 to 224 °C (dec.) | 102 | Cc1cc2c(c3ccc(O)cc13)OCc1cc(O)ccc1-2 [Example 1n, 12-Methyl-6H-dibenzo[c,h]chromene-2,8-diol] | – | – | – | – |
| 16 | 224 °C (dec.) | 147 | COc1cc2c(c3ccc(O)cc13)OCc1cc(O)ccc1-2 [Example 1l, 12-Methoxy-6H-dibenzo[c,h]chromene-2,8-diol] | – | – | – | – |
| 2.9 | 184 to 192 °C | 44 | CCc1cc2c(c3ccc(O)cc13)OCc1cc(O)ccc1-2 [Example 1p, 12-Ethyl-6H-dibenzo[c,h]chromene-2,8-diol] | – | – | – | – |
| 11 | 86 to 95 °C | 160 | CCCc1cc2c(c3ccc(O)cc13)OCc1cc(O)ccc1-2 [Example 1t, 12-Propyl-6H-dibenzo[c,h]chromene-2,8-diol] | – | – | – | – |
